Results reported in ChEMBL document CHEMBL4196004, “Discovery of novel mifepristone derivatives via suppressing KLF5 expression for the treatment of triple-negative breast cancer” (Eur J Med Chem, 2018).
Activity calls are given as the source filed them. The calls are words filed in the database; no cut-off is given here.

Tests used:
SUM149PT [1] = assay: Antiproliferative activity against human SUM149PT cells after 48 hrs by SRB assay; format: functional, cell-based
HCC1937 [2] = assay: Antiproliferative activity against human HCC1937 cells after 48 hrs by SRB assay; format: functional, cell-based; settings: HCC1937, 48 h
SUM149PT [3] = assay: Inhibition of KLF5 expression levels in human SUM149PT cells after 24 hrs by Western blot analysis; format: functional, cell-based
HCC1937 [4] = assay: Inhibition of KLF5 expression levels in human HCC1937 cells after 24 hrs by Western blot analysis; format: functional, cell-based
SUM149PT [5] = assay: Induction of PARP cleavage in human SUM149PT cells after 24 hrs by Western blot analysis; format: functional, cell-based
HCC1937 [6] = assay: Induction of PARP cleavage in human HCC1937 cells after 24 hrs by Western blot analysis; format: functional, cell-based
[7] = Cmax in Sprague-Dawley rat at 30 mg/kg administered via oral gavage by HPLC analysis; format: ADME, organism-based; set-up: dose 30 mg/kg, route oral; settings: in vivo
[8] = Elimination half life in Sprague-Dawley rat at 30 mg/kg administered via oral gavage by HPLC analysis; format: ADME, organism-based; settings: in vivo, read-out: beta t1/2 (converted)
[9] = Tmax in Sprague-Dawley rat at 30 mg/kg administered via oral gavage by HPLC analysis; format: ADME, organism-based; settings: in vivo
Rattus norvegicus [10] = assay: AUC (0 to t) in Sprague-Dawley rat at 30 mg/kg administered via oral gavage by HPLC analysis; format: ADME, organism-based; settings: in vivo
Rattus norvegicus [11] = assay: AUC (0 to infinity) in Sprague-Dawley rat at 30 mg/kg administered via oral gavage by HPLC analysis; format: ADME, organism-based; set-up: dose 30 mg/kg, route oral, time infinity; settings: in vivo
Homo sapiens = assay: Antitumor activity against human UM1 cells implanted in Balb/C nude mouse at 1 mg, ip qd for 4 weeks; format: functional, organism-based
Mus musculus [12] = assay: Toxicity in Balb/C nude mouse implanted with human UM1 cells assessed as loss of body weight at 1 mg, ip qd for 4 weeks; format: organism-based; settings: in vivo, 672 h
SUM149PT [13] = assay: Cell cycle arrest in human SUM149PT cells assessed as increase in cells at G1 phase at 20 uM after 24 hrs by propidium iodide staining-based flow cytometric analysis; format: functional
SUM149PT [14] = assay: Cell cycle arrest in human SUM149PT cells assessed as decrease in cells at S phase at 20 uM after 24 hrs by propidium iodide staining-based flow cytometric analysis; format: functional
SUM149PT [15] = assay: Cell cycle arrest in human SUM149PT cells assessed as increase in cells at G1 phase after 24 hrs by propidium iodide staining-based flow cytometric analysis; format: functional
SUM149PT [16] = assay: Cell cycle arrest in human SUM149PT cells assessed as decrease in cells at S phase at 5 to 10 uM after 24 hrs by propidium iodide staining-based flow cytometric analysis; format: functional
Mus musculus [17] = assay: Acute toxicity in KM mouse assessed as loss of body weight at 400 mg/kg, po administered as single dose and measured every 3 days; format: organism-based; settings: in vivo, 72 h
Mus musculus [18] = assay: Acute toxicity in KM mouse assessed as behaviour change at 400 mg/kg, po administered as single dose; format: organism-based; settings: in vivo

IC50 (HCC1937 [2]) [µM] | Compound | IC50 (SUM149PT [1]) [µM] | also measured
– | CC#C[C@]1(O)CC[C@H]2[C@@H]3CCC4=CC(=O)CCC4=C3[C@@H](c3ccc(N(C)C(=O)c4cc(Cl)cc(Cl)c4)cc3)C[C@@]21C | 9 | –
> 20 | CC#C[C@]1(O)CC[C@H]2[C@@H]3CCC4=CC(=O)CCC4=C3[C@@H](c3ccc(NC)cc3)C[C@@]21C [DESMETHYLMIFEPRISTONE] | > 20 | –
– | CC#C[C@]1(O)CC[C@H]2[C@@H]3CCC4=CC(=O)CCC4=C3[C@@H](c3ccc(N(C)C(=O)c4ccc(C)c(Cl)c4)cc3)C[C@@]21C | 4.7 | –
> 20 | CC#C[C@]1(O)CC[C@H]2[C@@H]3CCC4=CC(=O)CCC4=C3[C@@H](c3ccc(N(C)C(C)=O)cc3)C[C@@]21C | > 20 | –
14.7 | CC#C[C@]1(O)CC[C@H]2[C@@H]3CCC4=CC(=O)CCC4=C3[C@@H](c3ccc(N(C)C(=O)c4ccccc4)cc3)C[C@@]21C | 10.5 | –
> 20 | CC#C[C@]1(O)CC[C@H]2[C@@H]3CCC4=CC(=O)CCC4=C3[C@@H](c3ccc(N(C)S(=O)(=O)c4ccccc4)cc3)C[C@@]21C | > 20 | –
– | CC#C[C@]1(O)CC[C@H]2[C@@H]3CCC4=CC(=O)CCC4=C3[C@@H](c3ccc(N(C)C(=O)c4ccc(F)c(Cl)c4)cc3)C[C@@]21C | 9 | –
– | CC#C[C@]1(O)CC[C@H]2[C@@H]3CCC4=CC(=O)CCC4=C3[C@@H](c3ccc(N(C)C(=O)c4nccs4)cc3)C[C@@]21C | > 20 | –
– | CC#C[C@]1(O)CC[C@H]2[C@@H]3CCC4=CC(=O)CCC4=C3[C@@H](c3ccc(N(C)C(=O)c4ccccc4OC)cc3)C[C@@]21C | > 20 | –
4.2 | CC#C[C@]1(O)CC[C@H]2[C@@H]3CCC4=CC(=O)CCC4=C3[C@@H](c3ccc(N(C)C(=O)c4ccc(C(C)C)cc4)cc3)C[C@@]21C | 4.2 | –
– | CC#C[C@]1(O)CC[C@H]2[C@@H]3CCC4=CC(=O)CCC4=C3[C@@H](c3ccc(N(C)C(=O)c4cncs4)cc3)C[C@@]21C | > 20 | –
– | CC#C[C@]1(O)CC[C@H]2[C@@H]3CCC4=CC(=O)CCC4=C3[C@@H](c3ccc(N(C)C(=O)c4cnccn4)cc3)C[C@@]21C | > 20 | –
– | CC#C[C@]1(O)CC[C@H]2[C@@H]3CCC4=CC(=O)CCC4=C3[C@@H](c3ccc(N(C)C(=O)c4cccc(OC)c4)cc3)C[C@@]21C | 18 | –
9 | CC#C[C@]1(O)CC[C@H]2[C@@H]3CCC4=CC(=O)CCC4=C3[C@@H](c3ccc(N(C)C(=O)Cc4ccccc4)cc3)C[C@@]21C | 7 | –
– | CC#C[C@]1(O)CC[C@H]2[C@@H]3CCC4=CC(=O)CCC4=C3[C@@H](c3ccc(N(C)C(=O)c4cccs4)cc3)C[C@@]21C | 12.5 | –
> 20 | CC#C[C@]1(O)CC[C@H]2[C@@H]3CCC4=CC(=O)CCC4=C3[C@@H](c3ccc(N(C)C)cc3)C[C@@]21C [MIFEPRISTONE] | 15 | inhibition (SUM149PT [3]): Dose-dependent effect; inhibition (HCC1937 [4]): Dose-dependent effect; Activity (SUM149PT [5]): Dose-dependent effect; Activity (HCC1937 [6]): Dose-dependent effect; Cmax [7]: 0.36 µg/mL; half-life [8]: 3.02 h; Tmax [9]: 3.38 h; AUCt (Rattus norvegicus [10]): 1.97 mg/L/h; AUC (Rattus norvegicus [11]): 2.42 µg·h/mL; Activity (Homo sapiens): Active; Activity (Mus musculus [12]): Non-Toxic; Activity (SUM149PT [13]): inactive; Activity (SUM149PT [14]): Active
– | CC#C[C@]1(O)CC[C@H]2[C@@H]3CCC4=CC(=O)CCC4=C3[C@@H](c3ccc(N(C)C(=O)c4cc(Cl)ccc4F)cc3)C[C@@]21C | > 20 | –

IC50 (HCC1937 [2]) [µM] | Compound | IC50 (SUM149PT [1]) [µM] | also measured
– | CC#C[C@]1(O)CC[C@H]2[C@@H]3CCC4=CC(=O)CCC4=C3[C@@H](c3ccc(N(C)C(=O)c4ccc(OC)c(Cl)c4)cc3)C[C@@]21C | > 20 | –
9 | CC#C[C@]1(O)CC[C@H]2[C@@H]3CCC4=CC(=O)CCC4=C3[C@@H](c3ccc(N(C)C(=O)c4cccc(C)c4)cc3)C[C@@]21C | 5 | –
6.1 | CC#C[C@]1(O)CC[C@H]2[C@@H]3CCC4=CC(=O)CCC4=C3[C@@H](c3ccc(N(C)C(=O)c4ccc(C)c(C)c4)cc3)C[C@@]21C | 5.6 | –
6.1 | CC#C[C@]1(O)CC[C@H]2[C@@H]3CCC4=CC(=O)CCC4=C3[C@@H](c3ccc(N(C)C(=O)c4ccc5ccccc5c4)cc3)C[C@@]21C | 5 | –
– | CC#C[C@]1(O)CC[C@H]2[C@@H]3CCC4=CC(=O)CCC4=C3[C@@H](c3ccc(N(C)C(=O)c4ccc(OC)cc4)cc3)C[C@@]21C | 12 | –
> 20 | CC#C[C@]1(O)CC[C@H]2[C@@H]3CCC4=CC(=O)CCC4=C3[C@@H](c3ccc(N(C)C(=O)c4ccc(-c5ccccc5)cc4)cc3)C[C@@]21C | 16 | –
> 20 | CC#C[C@]1(O)CC[C@H]2[C@@H]3CCC4=CC(=O)CCC4=C3[C@@H](c3ccc(N(C)C(=O)c4ccncc4)cc3)C[C@@]21C | > 20 | –
> 20 | CC#C[C@]1(O)CC[C@H]2[C@@H]3CCC4=CC(=O)CCC4=C3[C@@H](c3ccc(N(C)S(=O)(=O)c4ccc(C)cc4)cc3)C[C@@]21C | > 20 | –
17.4 | CC#C[C@]1(O)CC[C@H]2[C@@H]3CCC4=CC(=O)CCC4=C3[C@@H](c3ccc(N(C)C(=O)c4ccccc4Cl)cc3)C[C@@]21C | > 20 | –
> 20 | CC#C[C@]1(O)CC[C@H]2[C@@H]3CCC4=CC(=O)CCC4=C3[C@@H](c3ccc(N(C)C(=O)c4ccccn4)cc3)C[C@@]21C | > 20 | –
4.2 | CC#C[C@]1(O)CC[C@H]2[C@@H]3CCC4=CC(=O)CCC4=C3[C@@H](c3ccc(N(C)C(=O)c4ccc(C(C)(C)C)cc4)cc3)C[C@@]21C | 3.5 | –
10.6 | CC#C[C@]1(O)CC[C@H]2[C@@H]3CCC4=CC(=O)CCC4=C3[C@@H](c3ccc(N(C)C(=O)c4cccc(Cl)c4)cc3)C[C@@]21C | 14.3 | –
0.44 | COc1cccc2c1C(=O)c1c(O)c3c(c(O)c1C2=O)C[C@@](O)(C(=O)CO)C[C@@H]3O[C@H]1C[C@H](N)[C@H](O)[C@H](C)O1 [DOXORUBICIN] | 0.36 | –
– | CC#C[C@]1(O)CC[C@H]2[C@@H]3CCC4=CC(=O)CCC4=C3[C@@H](c3ccc(N(C)C(=O)c4ccc(Cl)c(C(F)(F)F)c4)cc3)C[C@@]21C | > 20 | –
– | CC#C[C@]1(O)CC[C@H]2[C@@H]3CCC4=CC(=O)CCC4=C3[C@@H](c3ccc(N(C)C(=O)c4ccc(Cl)c(F)c4)cc3)C[C@@]21C | > 20 | –
9.1 | CC#C[C@]1(O)CC[C@H]2[C@@H]3CCC4=CC(=O)CCC4=C3[C@@H](c3ccc(N(C)C(=O)c4ccc(C)cc4)cc3)C[C@@]21C | 5 | –
9.7 | CC#C[C@]1(O)CC[C@H]2[C@@H]3CCC4=CC(=O)CCC4=C3[C@@H](c3ccc(N(C)C(=O)c4ccc(Cl)cc4)cc3)C[C@@]21C | 16.2 | –

Compound | IC50 (HCC1937 [2]) [µM] | IC50 (SUM149PT [1]) [µM] | also measured
CC#C[C@]1(O)CC[C@H]2[C@@H]3CCC4=CC(=O)CCC4=C3[C@@H](c3ccc(N(C)C(=O)c4ccc(Cl)c(Cl)c4)cc3)C[C@@]21C | 7.9 | 3.6 | Activity (SUM149PT [15]): Dose-dependent effect; Activity (SUM149PT [16]): Active; inhibition (SUM149PT [3]): Dose-dependent effect; inhibition (HCC1937 [4]): Dose-dependent effect; Activity (SUM149PT [5]): Dose-dependent effect; Activity (HCC1937 [6]): Dose-dependent effect; Cmax [7]: 0.55 µg/mL; half-life [8]: 2.88 h; Tmax [9]: 2.17 h; AUCt (Rattus norvegicus [10]): 2.45 mg/L/h; AUC (Rattus norvegicus [11]): 2.91 µg·h/mL; Activity (Homo sapiens): Active; Activity (Mus musculus [12]): Non-Toxic; Activity (Mus musculus [17]): Non-Toxic; Activity (Mus musculus [18]): Non-Toxic
